{
  "source": "patent US10398155B2",
  "about": "“Animal feed comprising a combination of mono glycerides” (Proviron Holding N.V., priority 2013, dated 2019)",
  "system": "Broiler chicken",
  "experiment": "Broiler growth test over 42 days with additives in animal feed or drinking water (AEW, FCR)",
  "assay_type": "in vivo",
  "details": "for D 0-42 AEW (average final weight of the broilers at day 42): Poor Feed day 0-13 then Rich Feed to day 42, average of 5 pens; for Ranking AEW 42 / Ranking FCR 42: compared to Rich feed standard test = 100%; for D 0-42 FCR (conversion of feed to chicken weight): lower is better",
  "procedure": "Broiler chicken were grown during 42 days, with and without the abovementioned compositions being added to either the animal feed, or the drinking water.\nBy the end of the test period of 42 days, the final weight of the broiler was determined, this is the AEW (Average End Weight), as well as the degree of conversion of feed to chicken weight, this is the FCR (Feed Conversion Rate). The latter parameter indicates the amount of feed a broiler chicken should eat per kilogram of final weight of the animal. The lower this parameter, the more efficient the chicken has been fed. This parameter is influenced by the way the animal feed is digested by the intestinal tract or metabolism of the chicken, but also by the way the feed offered to the chicken is effectively accepted by the animal. The latter to a large extent is determined by the taste of the feed offered. To the extent the taste of the feed offered is positively acknowledged by the chicken, less feed is removed by the animal; so dependent on the taste of the feed, more or less of the feed is discarded by the chicken.\nThe tests were performed on groups of each time 20 broilers for each pen.\nEach test was repeated on each time five pens, so each test was performed on in total 100 broilers.\nEach value represents an average amount of the results obtained for each set of the five pens.\nIt is then added to the feed as a powdery compound. In practice it is much easier to mix such a powdery composition with the animal feed, as compared to the addition of a fluid to the feed. • The next two columns show the results of the test, expressed as final weight of the animal, in this case a broiler chicken. • The column with the heading D 0-42 AEW denotes the average final weight of the broilers at day 42 (Average End Weight). The higher the value for this parameter, the better. • The column with the title Ranking AEW 42 denotes, expressed as a percentage, the result of the test in terms of AEW, as compared to the standard test, corresponding to a standard value set at 100%. • The last two columns set forth the results of the test, expressed differently, namely as a measure for the conversion of the feed in meat-resp. increase of weight of the animal, as set forth above. • The column with the title D 0-42 FCR denotes the average value of the conversion of feed to weight of the animal. The lower the value for this parameter, the better. The lower the value, the more efficient the conversion of feed into animal meat has been performed. • The column with the heading Ranking FCR 42 denotes, expressed as a percentage, the result of the test with respect to FCR, as compared to the standard test, which has been allocated the value of 100%.\nThe feed that has been fed to the broilers in the various tests comprises two different embodiments: • a first type of feed is the so-called ‘Poor Feed’: this is a normal, customary feed that is being fed to the broilers, whereby no forced growth and feed conversion is to be expected, and whereby also no particular duty on the intestinal tract of the broilers is imposed. Differently phrased, the broilers have no difficulty in digesting this feed, and the younger broilers grow in a normal path to fully-grown adult animals. • a second type of feed is the so-called ‘Rich Feed’: this is a feed particularly high in energy and proteins, to which a component has been added that results in a more viscous intestine content. The result of the use of this type of feed is that the growth of the broilers is intensified, but it also results in a heavier load on the intestinal tract. So the intestines of the broilers should work harder to fully digest the feed absorbed by the animal. In this case the risk of disturbing the bacterial balance in the intestinal tract is substantially higher. Such an imbalance in bacteria (dysbacteriosis) may be a cause of diseases with resulting adverse effects. […]",
  "key": {"[1]": {"details": "via drinking water, dosage 2.22 Kg/Ton"}, "[2]": {"details": "TVN 5 mg/KgLW via drinking water, dosage 0.04 Kg/Ton"}},
  "data": [
    {"compound": "CCCCCCCCCCCC(=O)OCC(O)CO", "note": "(centres unmarked) [Comp 1, monolaurin]", "values": [
      {"measurement": "D 0-42 AEW (average final weight of the broilers at day 42)", "setting": "dosage 1.2 Kg/Ton of feed", "value": 2.55, "unit": "kg"},
      {"measurement": "Ranking AEW 42", "setting": "dosage 1.2 Kg/Ton of feed", "value": 97, "unit": "%"},
      {"measurement": "Ranking FCR 42", "setting": "dosage 1.2 Kg/Ton of feed", "value": 104.6, "unit": "%"},
      {"measurement": "D 0-42 FCR (conversion of feed to chicken weight)", "setting": "dosage 1.2 Kg/Ton of feed, day 0-42", "value": 1.74},
      {"measurement": "D 0-42 AEW (average final weight of the broilers at day 42)", "setting": "dosage 2.4 Kg/Ton of feed", "value": 2.65, "unit": "kg"},
      {"measurement": "Ranking AEW 42", "setting": "dosage 2.4 Kg/Ton of feed", "value": 101, "unit": "%"},
      {"measurement": "Ranking FCR 42", "setting": "dosage 2.4 Kg/Ton of feed", "value": 101.3, "unit": "%"},
      {"measurement": "D 0-42 FCR (conversion of feed to chicken weight)", "setting": "dosage 2.4 Kg/Ton of feed, day 0-42", "value": 1.69}
    ]},
    {"compound": "CCCC(=O)OCC(O)CO", "note": "(centres unmarked) [Comp 4, monobutyrin]", "values": [
      {"measurement": "D 0-42 AEW (average final weight of the broilers at day 42)", "setting": "dosage 2 Kg/Ton of feed", "value": 2.68, "unit": "kg"},
      {"measurement": "Ranking AEW 42", "setting": "dosage 2 Kg/Ton of feed", "value": 102, "unit": "%"},
      {"measurement": "Ranking FCR 42", "setting": "dosage 2 Kg/Ton of feed", "value": 97.9, "unit": "%"},
      {"measurement": "D 0-42 FCR (conversion of feed to chicken weight)", "setting": "dosage 2 Kg/Ton of feed, day 0-42", "value": 1.63},
      {"measurement": "D 0-42 AEW (average final weight of the broilers at day 42)", "setting": "dosage 4 Kg/Ton of feed", "value": 2.63, "unit": "kg"},
      {"measurement": "Ranking AEW 42", "setting": "dosage 4 Kg/Ton of feed", "value": 100, "unit": "%"},
      {"measurement": "Ranking FCR 42", "setting": "dosage 4 Kg/Ton of feed", "value": 101.9, "unit": "%"},
      {"measurement": "D 0-42 FCR (conversion of feed to chicken weight)", "setting": "dosage 4 Kg/Ton of feed, day 0-42", "value": 1.70},
      {"measurement": "D 0-42 AEW (average final weight of the broilers at day 42)", "setting": "[1]", "value": 2.65, "unit": "kg"},
      {"measurement": "Ranking AEW 42", "setting": "[1]", "value": 101, "unit": "%"},
      {"measurement": "Ranking FCR 42", "setting": "[1]", "value": 98.6, "unit": "%"},
      {"measurement": "D 0-42 FCR (conversion of feed to chicken weight)", "setting": "via drinking water, dosage 2.22 Kg/Ton, day 0-42", "value": 1.64}
    ]},
    {"compound": "CC[C@H]1OC(=O)C[C@@H](OC(C)=O)[C@H](C)[C@@H](O[C@@H]2O[C@H](C)[C@@H](O[C@H]3C[C@@](C)(O)[C@@H](OC(=O)CC(C)C)[C@H](C)O3)[C@H](N(C)C)[C@H]2O)[C@@H](CC=O)C[C@@H](C)C(=O)/C=C/C(C)=C/[C@@H]1CO[C@@H]1O[C@H](C)[C@@H](O)[C@@H](OC)[C@H]1OC", "note": "[Ref 3, Tylvalosin]", "values": [
      {"measurement": "average increase in weight per day of the broilers", "setting": "Rich Feed with addition of TVN", "value": 66.3, "unit": "gr"},
      {"measurement": "D 0-42 AEW (average final weight of the broilers at day 42)", "setting": "[2]", "value": 2.79, "unit": "kg"},
      {"measurement": "Ranking AEW 42", "setting": "[2]", "value": 106, "unit": "%"},
      {"measurement": "Ranking FCR 42", "setting": "[2]", "value": 96.6, "unit": "%"},
      {"measurement": "Ranking AEW 42", "setting": "TVN 5 mg/KgLW via drinking water, dosage 0.04 Kg/Ton, listed as Tylvalosin", "value": 105.53, "unit": "%"},
      {"measurement": "D 0-42 FCR (conversion of feed to chicken weight)", "setting": "TVN 5 mg/KgLW via drinking water, dosage 0.04 Kg/Ton, entire period day 0-42", "value": 1.61}
    ]}
  ]
}
